Source: BindingDB's records for doi:10.1124/jpet.102.046797 (University of Maryland, 2003)

These compounds were tested against T1, Gamma-hydroxybutyrate receptor (Rattus norvegicus, UniProt Q6RY99).
T1 sequence (Q6RY99 whole entry): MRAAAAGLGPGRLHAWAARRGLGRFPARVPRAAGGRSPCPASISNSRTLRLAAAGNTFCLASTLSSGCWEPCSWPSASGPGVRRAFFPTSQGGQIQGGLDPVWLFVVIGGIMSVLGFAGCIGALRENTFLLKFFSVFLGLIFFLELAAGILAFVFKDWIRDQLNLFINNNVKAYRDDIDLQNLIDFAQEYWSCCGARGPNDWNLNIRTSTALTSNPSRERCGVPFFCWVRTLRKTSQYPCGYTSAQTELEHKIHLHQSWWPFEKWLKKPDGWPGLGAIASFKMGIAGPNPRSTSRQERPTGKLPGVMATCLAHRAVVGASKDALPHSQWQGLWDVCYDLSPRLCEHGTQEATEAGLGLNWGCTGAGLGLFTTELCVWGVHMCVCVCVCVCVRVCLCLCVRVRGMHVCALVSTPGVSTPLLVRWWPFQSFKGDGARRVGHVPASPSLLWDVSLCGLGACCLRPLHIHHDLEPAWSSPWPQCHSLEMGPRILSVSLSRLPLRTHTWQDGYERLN

Row | SMILES | Ki [µM]
1 | O=C(O)/C=C1/CCCc2ccccc2C1O (centres undefined) [CAS_131413] | 1.8
2 | O=C(O)CCCCO [UMB58] | > 10
3 | CC(C)(O)CCC(=O)O [UMB68] | > 10
4 | CC(C)(O)CCCC(=O)O [UMB75] | > 10
